Results published in PubChem BioAssay AID248 (DTP/NCI, 2004).
“And” between values parts separate entries of the source, which are not always exact repeats. Identical values can stand only once. Toxic doses and inconclusive results are not listed. Rule as the data show it: active = T/C of 150% or more; inactive = T/C below 125%.

System: L1210 leukemia ip in BDF1 mice, survival T/C
Experiment: NCI In Vivo Anticancer Drug Screen. Data for tumor model L1210 Leukemia (intraperitoneal) in B6D2F1 (BDF1) mice
Conditions: endpoint: mean survival time, higher = longer survival
Method in brief: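 Read-out is survival time, reported as the treated-group measurement over the vehicle-control measurement.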

[1] = dose: 100.0 mg/kg/injection, schedule: Q01DX001 (ip), vehicle: carboxymethylcellulose (CMC)
[2] = dose: 200.0 mg/kg/injection, schedule: Q01DX001 (ip), vehicle: carboxymethylcellulose (CMC)
[3] = dose: 400.0 mg/kg/injection, schedule: Q01DX001 (ip), vehicle: carboxymethylcellulose (CMC)
[4] = dose: 50.0 mg/kg/injection, schedule: Q01DX009 (ip), vehicle: saline with Tween-80
[5] = dose: 100.0 mg/kg/injection, schedule: Q01DX009 (ip), vehicle: saline with Tween-80
[6] = dose: 200.0 mg/kg/injection, schedule: Q01DX009 (ip), vehicle: saline with Tween-80
[7] = dose: 100.0 mg/kg/injection, schedule: Q01DX001 (ip), vehicle: saline with Tween-80
[8] = dose: 400.0 mg/kg/injection, schedule: Q01DX009 (ip), vehicle: saline with Tween-80
[9] = dose: 50.0 mg/kg/injection, schedule: Q01DX001 (ip), vehicle: saline
[10] = dose: 100.0 mg/kg/injection, schedule: Q01DX001 (ip), vehicle: saline
[11] = dose: 200.0 mg/kg/injection, schedule: Q01DX001 (ip), vehicle: saline
[12] = dose: 400.0 mg/kg/injection, schedule: Q01DX001 (ip), vehicle: saline
[13] = dose: 100.0 mg/kg/injection, schedule: Q01DX001 (ip), vehicle: Klucel (hydroxypropylcellulose) (HPC)
[14] = dose: 100.0 mg/kg/injection, schedule: Q04DX003 (ip), vehicle: saline with Tween-80
[15] = dose: 200.0 mg/kg/injection, schedule: Q04DX003 (ip), vehicle: saline with Tween-80
[16] = dose: 400.0 mg/kg/injection, schedule: Q04DX003 (ip), vehicle: saline with Tween-80
[17] = dose: 100.0 mg/kg/injection, schedule: Q04DX002 (ip), vehicle: saline with Tween-80
[18] = dose: 200.0 mg/kg/injection, schedule: Q04DX002 (ip), vehicle: saline with Tween-80

Measured: T/C

Cc1nc2nc(N)[nH]c(=O)c2[nH]c1=O
inactive: dose: 100.0 mg/kg/injection, schedule: Q01DX009 (ip), vehicle: saline 89 % of control | dose: 100.0 mg/kg/injection, schedule: Q04DX003 (ip), vehicle: saline 100 % of control | dose: 200.0 mg/kg/injection, schedule: Q01DX009 (ip), vehicle: saline 88 % of control | dose: 200.0 mg/kg/injection, schedule: Q04DX003 (ip), vehicle: saline 96 % of control | dose: 400.0 mg/kg/injection, schedule: Q04DX003 (ip), vehicle: saline 96 % of control

[N-]=[N+]=Nc1nc(Cl)nc2c1ncn2Cc1ccccc1
inactive: dose: 75.0 mg/kg/injection, schedule: Q01DX001 (ip), vehicle: other 97 % of control

Nc1c(N=O)c(=O)n(Cc2ccccc2)c(=O)n1Cc1ccccc1
inactive: dose: 50.0 mg/kg/injection, schedule: Q01DX001 (ip), vehicle: carboxymethylcellulose (CMC) 103 % of control | [1] 105 % of control | [2] 97 % of control | [3] 100 % of control

CC(=O)OC1CCC2(C)C(CCC3C4CC=C(C(C)=O)C4(C)CCC32)C1 (stereo not given)
inactive: dose: 100.0 mg/kg/injection, schedule: Q01DX009 (sc), vehicle: steriod suspending solution 94 % of control | dose: 100.0 mg/kg/injection, schedule: Q04DX003 (sc), vehicle: steriod suspending solution 115 % of control | dose: 200.0 mg/kg/injection, schedule: Q01DX009 (sc), vehicle: steriod suspending solution 109 % of control | dose: 200.0 mg/kg/injection, schedule: Q04DX003 (sc), vehicle: steriod suspending solution 103 % of control | dose: 400.0 mg/kg/injection, schedule: Q01DX009 (sc), vehicle: steriod suspending solution 98 % of control | dose: 400.0 mg/kg/injection, schedule: Q04DX003 (sc), vehicle: steriod suspending solution 105 % of control

COc1ccc(C)cc1NC(=O)NNC(=O)c1ccc(Cl)cc1
inactive: [4] 98 % of control | [5] 98 % of control | [6] 98 % of control

Cc1c2ccnc(-c3ccccc3)c2cc2c1[nH]c1ccccc12
inactive: dose: 31.3 mg/kg/injection, schedule: Q01DX Z (ip), vehicle: other 98 % of control | dose: 62.5 mg/kg/injection, schedule: Q01DX Z (ip), vehicle: other 101 % of control | [1] 108 % of control | dose: 125.0 mg/kg/injection, schedule: Q01DX015 (oral), vehicle: carboxymethylcellulose (CMC) 102 % of control | dose: 125.0 mg/kg/injection, schedule: Q01DX Z (ip), vehicle: other 101 % of control | [2] 103 % of control | dose: 250.0 mg/kg/injection, schedule: Q01DX015 (oral), vehicle: carboxymethylcellulose (CMC) 93 % of control | dose: 250.0 mg/kg/injection, schedule: Q01DX Z (ip), vehicle: other 91 % of control | [3] 97 % of control | dose: 500.0 mg/kg/injection, schedule: Q01DX015 (oral), vehicle: carboxymethylcellulose (CMC) 93 % of control

N#CC1(N(O)C(=O)Nc2ccccc2Cl)CCCCC1
inactive: [1] 100 % of control | [2] 96 % of control | [3] 91 % of control

COC(=O)Nc1cc2c3c(c1)CCCN3CCC2
inactive: [4] 91 % of control | [5] 96 % of control

C(=N/Nc1ccccn1)/c1cccnc1
inactive: [7] 112 % of control

Cc1ccc(COC(=O)Nc2ccc(C)c(NC(=O)OCc3ccc(C)cc3)c2)cc1
inactive: [5] 90 % of control | [8] 90 % of control

Nc1c2c([nH]c(=O)c1N=O)CCC2
inactive: [9] 95 % of control | [10] 93 % of control | [11] 95 % of control | [12] 104 % of control

Cc1ccc(Br)c2c1CCC2=O
inactive: [13] 93 % of control | dose: 200.0 mg/kg/injection, schedule: Q01DX001 (ip), vehicle: Klucel (hydroxypropylcellulose) (HPC) 100 % of control | dose: 400.0 mg/kg/injection, schedule: Q01DX001 (ip), vehicle: Klucel (hydroxypropylcellulose) (HPC) 93 % of control

Nc1ncnc(N)c1NC(=O)c1ccc([N+](=O)[O-])cc1
inactive: dose: 25.0 mg/kg/injection, schedule: Q01DX001 (ip), vehicle: Klucel (hydroxypropylcellulose) (HPC) 93 % of control | dose: 50.0 mg/kg/injection, schedule: Q01DX001 (ip), vehicle: Klucel (hydroxypropylcellulose) (HPC) 89 % of control | [13] 102 % of control

CC(=O)Nc1ccc(/C=C(\C#N)c2ccc(C)cc2)cc1
inactive: [14] 87 % of control | [15] 90 % of control | [16] 101 % of control

CCOc1ccc(OCC)c(NC(=O)Nc2cc(Cl)ccc2OC)c1
inactive: [7] 95 % of control | [5] 111 % of control and 90 % of control | [17] 98 % of control and 91 % of control | [14] 96 % of control | dose: 200.0 mg/kg/injection, schedule: Q01DX001 (ip), vehicle: saline with Tween-80 88 % of control | [6] 101 % of control and 92 % of control | [18] 94 % of control and 103 % of control | [15] 94 % of control | dose: 400.0 mg/kg/injection, schedule: Q01DX001 (ip), vehicle: saline with Tween-80 87 % of control | [8] 89 % of control | dose: 400.0 mg/kg/injection, schedule: Q04DX002 (ip), vehicle: saline with Tween-80 91 % of control and 92 % of control | [16] 91 % of control

CCCN1C(=O)C=CC1=O
inactive: dose: 25.0 mg/kg/injection, schedule: Q01DX009 (ip), vehicle: saline with Tween-80 96 % of control | dose: 25.0 mg/kg/injection, schedule: Q04DX003 (ip), vehicle: saline with Tween-80 91 % of control | [4] 96 % of control | dose: 50.0 mg/kg/injection, schedule: Q04DX003 (ip), vehicle: saline with Tween-80 92 % of control | [5] 95 % of control | [14] 97 % of control

O=C1CCCCC1C(=O)C(F)(F)C(F)(F)C(F)(F)F (stereo not given)
inactive: dose: 90.0 mg/kg/injection, schedule: Q01DX Z (ip), vehicle: methylcellulose (MC) 97 % of control | dose: 150.0 mg/kg/injection, schedule: Q01DX Z (ip), vehicle: methylcellulose (MC) 102 % of control | dose: 222.0 mg/kg/injection, schedule: Q01DX Z (ip), vehicle: methylcellulose (MC) 97 % of control | dose: 333.0 mg/kg/injection, schedule: Q01DX Z (ip), vehicle: methylcellulose (MC) 102 % of control

CCOCCNc1ccc(S(=O)(=O)c2ccc(N)cc2)cc1N
inactive: [10] 95 % of control | [11] 90 % of control | [12] 97 % of control

C(COCCOCC1CO1)OCCOCC1CO1 (stereo not given)
inactive: dose: 62.0 mg/kg/injection, schedule: Q01DX Z (ip), vehicle: saline 110 % of control | dose: 125.0 mg/kg/injection, schedule: Q01DX Z (ip), vehicle: saline 117 % of control | dose: 250.0 mg/kg/injection, schedule: Q01DX Z (ip), vehicle: saline 116 % of control | dose: 500.0 mg/kg/injection, schedule: Q01DX Z (ip), vehicle: saline 108 % of control

Cc1cc(Cl)ccc1NC(=O)C(c1ccccc1)c1ccccc1
inactive: dose: 100.0 mg/kg/injection, schedule: Q01DX009 (ip), vehicle: Klucel (hydroxypropylcellulose) (HPC) 89 % of control | dose: 100.0 mg/kg/injection, schedule: Q04DX003 (ip), vehicle: Klucel (hydroxypropylcellulose) (HPC) 101 % of control | dose: 200.0 mg/kg/injection, schedule: Q01DX009 (ip), vehicle: Klucel (hydroxypropylcellulose) (HPC) 92 % of control | dose: 200.0 mg/kg/injection, schedule: Q04DX003 (ip), vehicle: Klucel (hydroxypropylcellulose) (HPC) 95 % of control | dose: 400.0 mg/kg/injection, schedule: Q01DX009 (ip), vehicle: Klucel (hydroxypropylcellulose) (HPC) 93 % of control | dose: 400.0 mg/kg/injection, schedule: Q04DX003 (ip), vehicle: Klucel (hydroxypropylcellulose) (HPC) 88 % of control

CCC(=O)N(N=O)c1ccccc1
inactive: dose: 18.8 mg/kg/injection, schedule: Q01DX001 (ip), vehicle: saline 91 % of control

O=C(O)c1oc(Br)cc1Br
inactive: dose: 12.5 mg/kg/injection, schedule: Q04DX003 (ip), vehicle: other 96 % of control | dose: 25.0 mg/kg/injection, schedule: Q04DX003 (ip), vehicle: other 102 % of control | dose: 50.0 mg/kg/injection, schedule: Q04DX003 (ip), vehicle: other 101 % of control

CC(Br)c1ccc(S(=O)(=O)F)cc1 (stereo not given)
inactive: [17] 104 % of control | [18] 101 % of control

Nc1ccc(/C=C/c2ccc(N)cc2S(=O)(=O)O)c(S(=O)(=O)O)c1
inactive: [9] 97 % of control | [10] 94 % of control | [11] 94 % of control | [12] 97 % of control
